Where two headings read alike, the source gives them in different places.
What was measured:
[1] = system: neutrophils; settings: human, in vivo
Method: (§2) The 5-FU±HA was given by intravenous administration over one hour on a four week cycle. The initial dose of 5-FU in this study was 450 mg/m^2 daily for three days and the dose of HA 500 mg/m^2 with each administration of 5-FU. Dose escalation occurred in two steps to reach the standard dose of 450 mg/m^2 for five consecutive days with each cycle. Therefore, the initial dose level was 450 mg/r^2 daily for three days, the next 450 mg/m^2 for four days and the final 450 mg/m^2 daily for five days.

[2] = In vivo cytotoxicity (III), CMF±HA: organ pathology (lungs, liver); design: species or system Athymic CBA/WEHI nude female mice
Source text: (§1) Immediately after killing the mouse, the tumor, liver, heart, spleen, bladder, left and right kidneys, uterus, lungs, stomach, intestines, brain and lymph nodes were excised and weighed, and placed in 10% v/v formalin. The tissue was fixed for 16-24 hrs before histological processing. Fixed tissue was dehydrated stepwise to 100% v/v ethanol and embedded in paraffin blocks from which 2-4 μm sections were placed on glass microscope slides. Staining the tissue sections with a hematoxylin nuclear stain and eosin cytoplasmic stain highlighted any pathological features that could indicate treatment toxicity.

[3] = assay type: in vivo; settings: 6-week regimen
Method: The overall survival time was calculated as the time (days or weeks) that the animal lived, after the commencement of treatment.

[4] = system: blood cell sub-populations; experiment: In vivo cytotoxicity (III), CMF±HA: bone marrow suppression (blood cell counts); design: species or system Athymic CBA/WEHI nude female mice
Method: At the experimental end-point, when animals had to be euthanased due to degree of disease progression or when the 6-week treatment regimen was completed, the animals were anesthetized by a 0.1 ml intra-peritoneal injection of Nembutal (60 mg/ml), blood was collected, and the animals killed using cervical dislocation.
Erythrocyte, platelet and white blood cell numbers were estimated by making a 1/50- 1/2000 dilution of blood in mouse tenacity saline and counting on a hemocytometer. A blood smear was made and stained with Giemsa, thereby enabling a relative percentage quantification of neutrophils, lymphocytes, and […]. The total estimation of blood cell sub-populations was compared with published data for mouse blood.

[5] = In vivo cytotoxicity (III), CMF±HA: effect of treatment on organ mass; design: species or system Athymic CBA/WEHI nude female mice; settings: mouse
Source text: as §1
The mass of each organ was calculated as a percentage of the overall net bodyweight, and compared to the organ masses of the saline only group.

[6] = system: neutrophils; experiment: Phase I clinical trial of doxorubicin + HA (HyDox) in advanced cancer: toxicity, neutrophil counts; assay type: in vivo, patients; settings: HA 500 mg/m^2 with Dox 30-60 mg/m^2, three week cycle
Source text: The eligibility criteria, for inclusion in this study, were as follows: Patients must have advanced or metastatic cancer, histologically or cytologically confirmed. Patients were not to have had previous chemotherapy or were to have had no more than one prior chemotherapy regime and were not to have had prior anthracyclines. Patients were to be aged between 18 and 75 years with ambulatory performance status and adequate bone marrow, liver and renal function.
The treatment plan provided that, in the first chemotherapy cycle, patients be randomized to receive Dox alone or Dox plus HA. The converse applied in the second cycle. In the subsequent four cycles, patients received Dox plus HA. This allowed each patient to act as his/her own control in the toxicity analysis in the first two cycles, reducing the possibility of inter-patient variability affecting result interpretation.
Injectable sodium chloride was obtained from Baxter Healthcare, Sydney, Australia, as supplied as a 500 ml infusion bag.
Therefore, the initial dose level was 30 mg/m^2, the next 45 mg/m^2 and the next 60 mg/m^2.

[7] = system: neutrophils; experiment: Phase I clinical trial of 5-fluorouracil + HA (Hyfive) in metastatic colorectal cancer: toxicity, neutrophil counts
Method: as §2

[8] = HA days 1 and 3 (CMF, where given, days 2 and 4)
[9] = Patient 2, cycle Day 3, 5FU Cycle 1, HyFive Cycle 2
[10] = Patient 2, cycle Day 7, 5FU Cycle 1, HyFive Cycle 2
[11] = Patient 2, cycle Day 9, 5FU Cycle 1, HyFive Cycle 2
[12] = Patient 2, cycle Day 11, 5FU Cycle 1, HyFive Cycle 2
[13] = Patient 2, cycle Day 14, 5FU Cycle 1, HyFive Cycle 2
[14] = Patient 2, cycle Day 16, 5FU Cycle 1, HyFive Cycle 2
[15] = Patient 2, cycle Day 18, 5FU Cycle 1, HyFive Cycle 2
[16] = Patient 2, cycle Day 21, 5FU Cycle 1, HyFive Cycle 2
[17] = Patient 2, cycle Day 23, 5FU Cycle 1, HyFive Cycle 2
[18] = Patient 2, cycle Day 25, 5FU Cycle 1, HyFive Cycle 2
[19] = Patient 4, cycle Day 4, HyFive Cycle 1, 5FU Cycle 2
[20] = Patient 4, cycle Day 5, HyFive Cycle 1, 5FU Cycle 2
[21] = Patient 4, cycle Day 8, HyFive Cycle 1, 5FU Cycle 2
[22] = Patient 4, cycle Day 10, HyFive Cycle 1, 5FU Cycle 2
[23] = Patient 4, cycle Day 12, HyFive Cycle 1, 5FU Cycle 2
[24] = Patient 4, cycle Day 15, HyFive Cycle 1, 5FU Cycle 2
[25] = Patient 4, cycle Day 17, HyFive Cycle 1, 5FU Cycle 2
[26] = Patient 4, cycle Day 19, HyFive Cycle 1, 5FU Cycle 2
[27] = Patient 4, cycle Day 22, HyFive Cycle 1, 5FU Cycle 2
[28] = Patient 4, cycle Day 24, HyFive Cycle 1, 5FU Cycle 2
[29] = Patient 4, cycle Day 26, HyFive Cycle 1, 5FU Cycle 2
[30] = Patient 5, cycle Day 5, 5FU Cycle 1, HyFive Cycle 2
[31] = Patient 5, cycle Day 10, 5FU Cycle 1, HyFive Cycle 2
[32] = Patient 5, cycle Day 12, 5FU Cycle 1, HyFive Cycle 2
[33] = Patient 5, cycle Day 15, 5FU Cycle 1, HyFive Cycle 2
[34] = Patient 5, cycle Day 17, 5FU Cycle 1, HyFive Cycle 2
[35] = Patient 5, cycle Day 19, 5FU Cycle 1, HyFive Cycle 2
[36] = Patient 5, cycle Day 22, 5FU Cycle 1, HyFive Cycle 2
[37] = Patient 5, cycle Day 24, 5FU Cycle 1, HyFive Cycle 2
[38] = Patient 5, cycle Day 26, 5FU Cycle 1, HyFive Cycle 2
[39] = Patient 6, cycle Day 3, 5FU Cycle 1, HyFive Cycle 2
[40] = Patient 6, cycle Day 8, 5FU Cycle 1, HyFive Cycle 2
[41] = Patient 6, cycle Day 10, 5FU Cycle 1, HyFive Cycle 2
[42] = Patient 6, cycle Day 12, 5FU Cycle 1, HyFive Cycle 2
[43] = Patient 6, cycle Day 15, 5FU Cycle 1, HyFive Cycle 2
[44] = Patient 6, cycle Day 17, 5FU Cycle 1, HyFive Cycle 2
[45] = Patient 6, cycle Day 19, 5FU Cycle 1, HyFive Cycle 2
[46] = Patient 6, cycle Day 22, 5FU Cycle 1, HyFive Cycle 2
[47] = Patient 6, cycle Day 24, 5FU Cycle 1, HyFive Cycle 2
[48] = Patient 6, cycle Day 26, 5FU Cycle 1, HyFive Cycle 2
[49] = Patient 7, cycle Day 3, HyFive Cycle 1, 5FU Cycle 2
[50] = Patient 7, cycle Day 5, HyFive Cycle 1, 5FU Cycle 2
[51] = Patient 7, cycle Day 8, HyFive Cycle 1, 5FU Cycle 2
[52] = Patient 7, cycle Day 10, HyFive Cycle 1, 5FU Cycle 2
[53] = Patient 7, cycle Day 15, HyFive Cycle 1, 5FU Cycle 2
[54] = Patient 7, cycle Day 17, HyFive Cycle 1, 5FU Cycle 2
[55] = Patient 7, cycle Day 19, HyFive Cycle 1, 5FU Cycle 2
[56] = Patient 7, cycle Day 22, HyFive Cycle 1, 5FU Cycle 2
[57] = Patient 7, cycle Day 24, HyFive Cycle 1, 5FU Cycle 2
[58] = Patient 7, cycle Day 26, HyFive Cycle 1, 5FU Cycle 2

Compound: hyaluronan [HA]
- Effect on known toxicities of 5-FU in patients [1]: does not increase any of the known toxicities of 5-FU
- Liver: % with areas of focal liver necrosis/inflammation ([2]; liver pathology): 25% with
- Lungs: % with oedema and macrophage infiltrate ([2]; lung pathology): 12.5% with
- Survival time mean ± SEM [3, 8]: 42 ± 0 days
- Survival time mean ± SEM ([3]; administered days 1 and 2): 42 ± 0 days
- Erthrocytes (Mean ± SD) [4, 8]: 8.78 ± 0.25 × 10^6/ul
- Lymphocytes/Monocytes (Mean ± SD) [4, 8]: 47 ± 2%
- Neutrophils/eosinophils/basophils (Mean ± SD) [4, 8]: 53 ± 2%
- Platelets (Mean ± SD) [4, 8]: 1356 ± 41 × 10^3/ul
- White Cells (Mean ± SD) [4, 8]: 6.15 ± 0.05 × 10^3/ul
- Erthrocytes (Mean ± SD) ([4]; administered days 1 and 2): 8.99 ± 0.13 × 10^6/ul
- Lymphocytes/Monocytes (Mean ± SD) ([4]; administered days 1 and 2): 47 ± 1%
- Neutrophils/eosinophils/basophils (Mean ± SD) ([4]; administered days 1 and 2): 53 ± 1%
- Platelets (Mean ± SD) ([4]; administered days 1 and 2): 1374 ± 7 × 10^3/ul
- White Cells (Mean ± SD) ([4]; administered days 1 and 2): 6.15 ± 0.03 × 10^3/ul
- Spleen mass compared to the untreated control [5]: significant enlargement of the spleen
- Effect on known toxicities of Dox in patients [6]: does not increase any of the known toxicities of Dox

Compound: O=c1[nH]cc(F)c(=O)[nH]1 [5FU, 5-fluorouracil]
- Neutrophil Count [7, 9]: 7.6
- Neutrophil Count as % Day 1 [7, 9]: 82%
- Neutrophil Count [7, 10]: 8.4
- Neutrophil Count as % Day 1 [7, 10]: 90%
- Neutrophil Count [7, 11]: 8.3
- Neutrophil Count as % Day 1 [7, 11]: 89%
- Neutrophil Count [7, 12]: 6.8
- Neutrophil Count as % Day 1 [7, 12]: 73%
- Neutrophil Count [7, 13]: 7
- Neutrophil Count as % Day 1 [7, 13]: 75%
- Neutrophil Count [7, 14]: 7.3
- Neutrophil Count as % Day 1 [7, 14]: 78%
- Neutrophil Count [7, 15]: 8.4
- Neutrophil Count as % Day 1 [7, 15]: 90%
- Neutrophil Count [7, 16]: 8.2
- Neutrophil Count as % Day 1 [7, 16]: 88%
- Neutrophil Count [7, 17]: 7.8
- Neutrophil Count as % Day 1 [7, 17]: 84%
- Neutrophil Count [7, 18]: 8.7
- Neutrophil Count as % Day 1 [7, 18]: 94%
- Neutrophil Count ([7]; Patient 2 L-F (Day 3 Tx), cycle Day 1, 5FU Cycle 1, HyFive Cycle 2): 9.3
- Neutrophil Count [7, 19]: 4.4
- Neutrophil Count as % Day 1 [7, 19]: 86%
- Neutrophil Count [7, 20]: 4.4
- Neutrophil Count as % Day 1 [7, 20]: 86%
- Neutrophil Count [7, 21]: 5
- Neutrophil Count as % Day 1 [7, 21]: 98%
- Neutrophil Count [7, 22]: 10.3
- Neutrophil Count as % Day 1 [7, 22]: 202%
- Neutrophil Count [7, 23]: 6.9
- Neutrophil Count as % Day 1 [7, 23]: 135%
- Neutrophil Count [7, 24]: 6.7
- Neutrophil Count as % Day 1 [7, 24]: 131%
- Neutrophil Count [7, 25]: 7.5
- Neutrophil Count as % Day 1 [7, 25]: 147%
- Neutrophil Count [7, 26]: 6.5
- Neutrophil Count as % Day 1 [7, 26]: 127%
- Neutrophil Count [7, 27]: 6.1
- Neutrophil Count as % Day 1 [7, 27]: 120%
- Neutrophil Count [7, 28]: 7.9
- Neutrophil Count as % Day 1 [7, 28]: 155%
- Neutrophil Count [7, 29]: 5.3
- Neutrophil Count as % Day 1 [7, 29]: 104%
- Neutrophil Count ([7]; Patient 4 C-X (4 Day Tx), cycle Day 1, HyFive Cycle 1, 5FU Cycle 2): 5.1
- Neutrophil Count [7, 30]: 4.5
- Neutrophil Count as % Day 1 [7, 30]: 107%
- Neutrophil Count [7, 31]: 4.1
- Neutrophil Count as % Day 1 [7, 31]: 98%
- Neutrophil Count [7, 32]: 4.3
- Neutrophil Count as % Day 1 [7, 32]: 102%
- Neutrophil Count [7, 33]: 3.7
- Neutrophil Count as % Day 1 [7, 33]: 88%
- Neutrophil Count [7, 34]: 3.3
- Neutrophil Count as % Day 1 [7, 34]: 79%
- Neutrophil Count [7, 35]: 4.3
- Neutrophil Count as % Day 1 [7, 35]: 102%
- Neutrophil Count [7, 36]: 4.3
- Neutrophil Count as % Day 1 [7, 36]: 102%
- Neutrophil Count [7, 37]: 4
- Neutrophil Count as % Day 1 [7, 37]: 95%
- Neutrophil Count [7, 38]: 4.5
- Neutrophil Count as % Day 1 [7, 38]: 107%
- Neutrophil Count ([7]; Patient 5 J-M (5 Day Tx), cycle Day 1, 5FU Cycle 1, HyFive Cycle 2): 4.2
- Neutrophil Count [7, 39]: 4.3
- Neutrophil Count as % Day 1 [7, 39]: 81%
- Neutrophil Count [7, 40]: 4.5
- Neutrophil Count as % Day 1 [7, 40]: 85%
- Neutrophil Count [7, 41]: 6.6
- Neutrophil Count as % Day 1 [7, 41]: 125%
- Neutrophil Count [7, 42]: 4.5
- Neutrophil Count as % Day 1 [7, 42]: 85%
- Neutrophil Count [7, 43]: 4.2
- Neutrophil Count as % Day 1 [7, 43]: 79%
- Neutrophil Count [7, 44]: 5.5
- Neutrophil Count as % Day 1 [7, 44]: 104%
- Neutrophil Count [7, 45]: 5.3
- Neutrophil Count as % Day 1 [7, 45]: 100%
- Neutrophil Count [7, 46]: 5.7
- Neutrophil Count as % Day 1 [7, 46]: 108%
- Neutrophil Count [7, 47]: 5.4
- Neutrophil Count as % Day 1 [7, 47]: 102%
- Neutrophil Count [7, 48]: 5
- Neutrophil Count as % Day 1 [7, 48]: 94%
- Neutrophil Count ([7]; Patient 6 J-B (5 Day Tx), cycle Day 1, 5FU Cycle 1, HyFive Cycle 2): 5.3
- Neutrophil Count [7, 49]: 2.3
- Neutrophil Count as % Day 1 [7, 49]: 77%
- Neutrophil Count [7, 50]: 2.8
- Neutrophil Count as % Day 1 [7, 50]: 93%
- Neutrophil Count [7, 51]: 3.2
- Neutrophil Count as % Day 1 [7, 51]: 107%
- Neutrophil Count [7, 52]: 2.5
- Neutrophil Count as % Day 1 [7, 52]: 83%
- Neutrophil Count [7, 53]: 2.7
- Neutrophil Count as % Day 1 [7, 53]: 90%
- Neutrophil Count [7, 54]: 2.5
- Neutrophil Count as % Day 1 [7, 54]: 83%
- Neutrophil Count [7, 55]: 3
- Neutrophil Count as % Day 1 [7, 55]: 100%
- Neutrophil Count [7, 56]: 3.4
- Neutrophil Count as % Day 1 [7, 56]: 113%
- Neutrophil Count [7, 57]: 3.1
- Neutrophil Count as % Day 1 [7, 57]: 103%
- Neutrophil Count [7, 58]: 3.5
- Neutrophil Count as % Day 1 [7, 58]: 117%
- Neutrophil Count ([7]; Patient 7 V-D (5 Day Tx), cycle Day 1, HyFive Cycle 1, 5FU Cycle 2): 3

From patent US20090306012A1, “THERAPEUTIC PROTOCOLS” (priority 2001, published 2009)
